Experiments:
IKZF2 = target: T1, IKZF2 (Homo sapiens, UniProt Q96SW2+Q9UKS7); experiment: Western blot degradation of IKZF2 in hPBMCs (24 h); type: cell-based; settings: compounds at 50 nM and 500 nM
T1 construct: The supernatant was aspirated as the extracted total cell protein; endogenous in cells; host or cells: human peripheral blood mononuclear cells (hPBMCs)
Procedure, shortened: (§1)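 hPBMCs (1×10^6 cells/mL) were treated with compound at 50 nM and 500 nM for 24 h, lysed in RIPA with protease inhibitors and analysed by SDS-PAGE/Western blot. Band grayscale, normalised to internal control, gave protein remaining (%); DC50 estimated versus DMSO bands.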

CK1α = target: T2, CK1α (Homo sapiens, UniProt P48729+Q96SW2); experiment: Western blot degradation of CK1α in hPBMCs (24 h); type: cell-based; settings: compounds at 50 nM and 500 nM
T2 construct: The supernatant was aspirated as the extracted total cell protein; endogenous in cells; host or cells: human peripheral blood mononuclear cells (hPBMCs)
Procedure, shortened: as §1

WEE1 = target: T3, WEE1 (Homo sapiens, UniProt P30291+Q96SW2); experiment: Western blot degradation of WEE1 in hPBMCs (24 h); type: cell-based; settings: compounds at 50 nM and 500 nM
T3 construct: The supernatant was aspirated as the extracted total cell protein; endogenous in cells; host or cells: human peripheral blood mononuclear cells (hPBMCs)
Procedure, shortened: as §1

IKZF3 = target: T4, IKZF3 (Homo sapiens, UniProt Q96SW2+Q9UKT9); experiment: Western blot degradation of IKZF3 in hPBMCs (24 h); type: cell-based; settings: compounds at 50 nM and 500 nM
T4 construct: The supernatant was aspirated as the extracted total cell protein; endogenous in cells; host or cells: human peripheral blood mononuclear cells (hPBMCs)
Procedure, shortened: as §1

MM.1S cells = experiment: Inhibition of proliferation of multiple myeloma cells MM.1S (cell viability assay, 96 h); type: cell-based, human; settings: read-out: inhibitory activity (IC50) against tumor cells proliferation, MM.1S
GSPT1 = target: T5, GSPT1 (Homo sapiens, UniProt P15170+Q96SW2); experiment: Western blot degradation of GSPT1 in hPBMCs (24 h); type: cell-based; settings: compounds at 50 nM and 500 nM
T5 construct: The supernatant was aspirated as the extracted total cell protein; endogenous in cells; host or cells: human peripheral blood mononuclear cells (hPBMCs)
Procedure, shortened: as §1

MGC803 cells = experiment: Inhibition of proliferation of gastric cancer cells MGC803 (cell viability assay, 96 h); type: cell-based, human; settings: read-out: inhibitory activity (IC50) against tumor cells proliferation, MGC803
Procedure: (§2) The tumor cells used herein were cultured in a cell culture medium listed in table 2 at 37 °C in an incubator with 5% CO2. Prior to experimentation, all cell lines used were correctly identified by STR profiling, and tested negative for Mycoplasma contamination using a Mycoplasma detection kit through routine screenings.
The IC50 values of the compounds of the present disclosure (including the compounds in Table 1, and Examples 1-498) were determined using the CellTiter-Meiluncell Luminescent Cell Viability Assay Kit from Dalian Meilun Biotech Co., Ltd. The detailed procedure is as follows: Tumor cells were seeded in 96-well cell culture plates at the densities specified in Table 3. On the following day, the test compounds of the present disclosure were subjected to serial dilution. […] Subsequently, 0.5 μL of the test compound dilution was transferred into the 96-well plate containing the cells, with each well containing 100 μL of cell culture medium. […] Into the 96-well plate, the diluted test compounds and corresponding detection reagents were added, resulting in final test compound concentrations of 500 nM and 10 nM, respectively. The experimental procedure is described below using the diluted 2 μM test compound as an example.
0.5 μL of the aforementioned diluted compound of the present disclosure (including the compounds in Table 1, and Examples 1-498) was added to the seeded cells in 100 μL of medium, yielding a final test compound concentration of 10 nM. After the cells were treated with the compounds of the present disclosure for a specified period, the cell viability assay reagent was added to the culture medium according to the kit's instructions to determine cell viability. […] All controls were treated using the same procedure as the compounds of the present disclosure. The growth inhibition curves for the compounds of the present disclosure were plotted using Prism GraphPad software, and the IC50 values were calculated therefrom.

IKZF1 = target: T6, IKZF1 (Homo sapiens, UniProt Q13422+Q96SW2); experiment: Western blot degradation of IKZF1 in hPBMCs (24 h); type: cell-based; settings: compounds at 50 nM and 500 nM
T6 construct: The supernatant was aspirated as the extracted total cell protein; endogenous in cells; host or cells: human peripheral blood mononuclear cells (hPBMCs)
Procedure, shortened: as §1

Jurkat cells = experiment: Inhibition of proliferation of T lymphocytic leukemia cells Jurkat (cell viability assay, 96 h); type: cell-based, human; settings: read-out: inhibitory activity (IC50) against tumor cells proliferation, Jurkat
H2228 cells = experiment: Inhibition of proliferation of non-small cell lung cancer cells H2228 (cell viability assay, 96 h); type: cell-based, human
Procedure: as §2
(§3) The IC50 values of the compounds of the present disclosure (including the compounds in Table 1, and Examples 1-498) were determined using the CellTiter-Meiluncell Luminescent Cell Viability Assay Kit from Dalian Meilun Biotech Co., Ltd. The detailed procedure is as follows: Tumor cells were seeded in 96-well cell culture plates at the densities specified in Table 3. On the following day, the test compounds of the present disclosure were subjected to serial dilution. […] Subsequently, 0.5 μL of the test compound dilution was transferred into the 96-well plate containing the cells, with each well containing 100 μL of cell culture medium. […]
(§4) 0.5 μL of the aforementioned diluted compound of the present disclosure (including the compounds in Table 1, and Examples 1-498) was added to the seeded cells in 100 μL of medium, yielding a final test compound concentration of 10 nM. […] The growth inhibition curves for the compounds of the present disclosure were plotted using Prism GraphPad software, and the IC50 values were calculated therefrom.

MDA-MB-231 cells = experiment: Inhibition of proliferation of breast cancer cells MDA-MB-231 (cell viability assay, 96 h); type: cell-based, human
Procedure: as §2, §3, §4

H292 cells = experiment: Inhibition of proliferation of human lung cancer cells H292 (CellTiter-Meiluncell Luminescent Cell Viability Assay, 96 h); type: cell-based
Procedure: as §2, §3, §4

T3 sequence (P30291 whole entry): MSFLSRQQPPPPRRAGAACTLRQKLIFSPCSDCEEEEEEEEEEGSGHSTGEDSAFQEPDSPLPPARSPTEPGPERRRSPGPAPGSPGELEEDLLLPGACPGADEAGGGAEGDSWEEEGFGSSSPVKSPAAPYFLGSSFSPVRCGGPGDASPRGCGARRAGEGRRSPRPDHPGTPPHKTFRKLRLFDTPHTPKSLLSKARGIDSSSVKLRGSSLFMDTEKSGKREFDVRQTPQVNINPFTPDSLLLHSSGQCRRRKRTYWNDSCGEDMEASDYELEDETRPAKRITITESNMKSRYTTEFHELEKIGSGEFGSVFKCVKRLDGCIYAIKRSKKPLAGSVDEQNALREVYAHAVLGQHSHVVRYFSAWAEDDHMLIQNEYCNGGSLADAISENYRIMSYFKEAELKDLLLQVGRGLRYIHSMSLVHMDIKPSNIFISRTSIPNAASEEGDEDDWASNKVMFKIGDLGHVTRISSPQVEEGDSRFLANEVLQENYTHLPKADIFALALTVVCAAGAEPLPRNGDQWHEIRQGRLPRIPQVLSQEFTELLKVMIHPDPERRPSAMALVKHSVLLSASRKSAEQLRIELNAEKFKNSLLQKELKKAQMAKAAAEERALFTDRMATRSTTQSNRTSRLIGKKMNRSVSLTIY
T3 sequence (Q96SW2 whole entry): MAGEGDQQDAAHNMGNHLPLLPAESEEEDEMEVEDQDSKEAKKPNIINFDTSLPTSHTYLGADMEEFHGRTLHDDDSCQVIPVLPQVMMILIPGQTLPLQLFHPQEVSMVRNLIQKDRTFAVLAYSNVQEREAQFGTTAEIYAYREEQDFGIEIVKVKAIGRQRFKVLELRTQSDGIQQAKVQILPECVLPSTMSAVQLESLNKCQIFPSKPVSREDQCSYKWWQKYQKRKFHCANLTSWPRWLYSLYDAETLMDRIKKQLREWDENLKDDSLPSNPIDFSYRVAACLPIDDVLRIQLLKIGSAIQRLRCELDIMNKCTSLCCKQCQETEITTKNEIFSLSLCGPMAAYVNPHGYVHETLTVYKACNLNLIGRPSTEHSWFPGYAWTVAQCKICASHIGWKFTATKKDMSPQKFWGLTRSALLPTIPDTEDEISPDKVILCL
T3 sequence (Q16531 whole entry partner): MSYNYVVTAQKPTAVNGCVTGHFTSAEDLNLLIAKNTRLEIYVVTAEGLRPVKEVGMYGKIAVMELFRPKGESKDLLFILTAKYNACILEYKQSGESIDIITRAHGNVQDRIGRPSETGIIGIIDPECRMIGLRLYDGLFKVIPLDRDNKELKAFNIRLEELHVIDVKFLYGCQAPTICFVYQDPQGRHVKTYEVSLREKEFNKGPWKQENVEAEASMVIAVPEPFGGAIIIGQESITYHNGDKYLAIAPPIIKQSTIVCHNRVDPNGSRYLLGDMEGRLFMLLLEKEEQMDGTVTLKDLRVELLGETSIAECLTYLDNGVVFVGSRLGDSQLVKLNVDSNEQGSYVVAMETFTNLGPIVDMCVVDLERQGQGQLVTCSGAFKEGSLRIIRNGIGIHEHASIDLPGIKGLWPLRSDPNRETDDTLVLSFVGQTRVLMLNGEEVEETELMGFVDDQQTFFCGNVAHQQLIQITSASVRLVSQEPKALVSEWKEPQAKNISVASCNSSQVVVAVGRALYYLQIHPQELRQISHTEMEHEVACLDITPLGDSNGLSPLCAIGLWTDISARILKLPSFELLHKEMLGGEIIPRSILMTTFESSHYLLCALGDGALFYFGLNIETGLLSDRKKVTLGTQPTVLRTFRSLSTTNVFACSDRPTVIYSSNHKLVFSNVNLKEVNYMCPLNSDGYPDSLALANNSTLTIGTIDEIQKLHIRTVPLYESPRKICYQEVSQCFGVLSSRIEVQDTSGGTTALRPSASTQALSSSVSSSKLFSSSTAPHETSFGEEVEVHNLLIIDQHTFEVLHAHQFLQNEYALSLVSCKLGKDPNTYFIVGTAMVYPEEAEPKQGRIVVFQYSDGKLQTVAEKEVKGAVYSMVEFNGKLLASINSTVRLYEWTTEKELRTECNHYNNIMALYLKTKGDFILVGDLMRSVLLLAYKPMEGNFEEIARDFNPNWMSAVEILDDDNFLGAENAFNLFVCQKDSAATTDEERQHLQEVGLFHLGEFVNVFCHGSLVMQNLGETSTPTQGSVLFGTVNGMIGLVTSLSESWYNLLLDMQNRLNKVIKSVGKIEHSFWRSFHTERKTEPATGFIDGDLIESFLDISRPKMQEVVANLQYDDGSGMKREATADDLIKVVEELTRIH
T1 sequence (Q9UKS7 whole entry): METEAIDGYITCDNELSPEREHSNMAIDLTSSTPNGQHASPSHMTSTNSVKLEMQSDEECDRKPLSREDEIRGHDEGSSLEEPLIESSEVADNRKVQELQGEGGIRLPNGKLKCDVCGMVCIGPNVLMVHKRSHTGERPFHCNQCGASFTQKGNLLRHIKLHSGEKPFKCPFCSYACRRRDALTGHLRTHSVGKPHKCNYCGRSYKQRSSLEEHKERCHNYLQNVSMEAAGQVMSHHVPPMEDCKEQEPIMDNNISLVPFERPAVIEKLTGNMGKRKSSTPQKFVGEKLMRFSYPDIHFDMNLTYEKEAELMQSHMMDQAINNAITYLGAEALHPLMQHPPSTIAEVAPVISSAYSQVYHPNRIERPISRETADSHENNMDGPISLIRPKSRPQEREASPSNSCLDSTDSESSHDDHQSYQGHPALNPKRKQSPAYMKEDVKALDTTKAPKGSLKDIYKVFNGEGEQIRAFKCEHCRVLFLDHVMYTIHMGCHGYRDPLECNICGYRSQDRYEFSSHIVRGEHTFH
T1 sequence (Q96SW2 whole entry): as the sequence (Q96SW2 whole entry) above
T1 sequence (Q16531 whole entry partner): as the sequence (Q16531 whole entry partner) above
T5 sequence (P15170 whole entry): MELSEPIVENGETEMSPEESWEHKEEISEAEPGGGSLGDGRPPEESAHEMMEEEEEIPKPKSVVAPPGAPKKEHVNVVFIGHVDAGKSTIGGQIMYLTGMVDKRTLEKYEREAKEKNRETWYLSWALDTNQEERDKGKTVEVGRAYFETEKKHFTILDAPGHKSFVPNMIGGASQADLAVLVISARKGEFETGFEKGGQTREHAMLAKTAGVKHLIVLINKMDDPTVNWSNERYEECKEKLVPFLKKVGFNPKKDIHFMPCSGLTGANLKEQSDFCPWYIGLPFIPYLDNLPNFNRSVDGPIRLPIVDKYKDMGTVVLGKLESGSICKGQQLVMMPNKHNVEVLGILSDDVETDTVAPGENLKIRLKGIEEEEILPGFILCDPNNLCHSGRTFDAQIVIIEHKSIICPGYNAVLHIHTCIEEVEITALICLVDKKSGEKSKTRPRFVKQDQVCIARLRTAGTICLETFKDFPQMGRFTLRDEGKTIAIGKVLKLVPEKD
T5 sequence (Q96SW2 whole entry): as the sequence (Q96SW2 whole entry) above
T5 sequence (Q16531 whole entry partner): as the sequence (Q16531 whole entry partner) above
T2 sequence (P48729 whole entry): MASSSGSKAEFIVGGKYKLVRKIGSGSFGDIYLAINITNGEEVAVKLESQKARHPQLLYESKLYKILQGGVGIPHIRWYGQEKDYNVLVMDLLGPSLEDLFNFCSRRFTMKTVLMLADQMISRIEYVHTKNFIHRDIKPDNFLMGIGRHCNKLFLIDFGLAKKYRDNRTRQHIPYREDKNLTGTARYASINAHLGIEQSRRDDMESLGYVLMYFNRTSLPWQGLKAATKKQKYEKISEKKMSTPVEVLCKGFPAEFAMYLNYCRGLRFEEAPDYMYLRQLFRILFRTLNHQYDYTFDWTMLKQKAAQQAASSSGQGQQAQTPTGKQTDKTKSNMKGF
T2 sequence (Q96SW2 whole entry): as the sequence (Q96SW2 whole entry) above
T2 sequence (Q16531 whole entry partner): as the sequence (Q16531 whole entry partner) above
T6 sequence (Q13422 whole entry): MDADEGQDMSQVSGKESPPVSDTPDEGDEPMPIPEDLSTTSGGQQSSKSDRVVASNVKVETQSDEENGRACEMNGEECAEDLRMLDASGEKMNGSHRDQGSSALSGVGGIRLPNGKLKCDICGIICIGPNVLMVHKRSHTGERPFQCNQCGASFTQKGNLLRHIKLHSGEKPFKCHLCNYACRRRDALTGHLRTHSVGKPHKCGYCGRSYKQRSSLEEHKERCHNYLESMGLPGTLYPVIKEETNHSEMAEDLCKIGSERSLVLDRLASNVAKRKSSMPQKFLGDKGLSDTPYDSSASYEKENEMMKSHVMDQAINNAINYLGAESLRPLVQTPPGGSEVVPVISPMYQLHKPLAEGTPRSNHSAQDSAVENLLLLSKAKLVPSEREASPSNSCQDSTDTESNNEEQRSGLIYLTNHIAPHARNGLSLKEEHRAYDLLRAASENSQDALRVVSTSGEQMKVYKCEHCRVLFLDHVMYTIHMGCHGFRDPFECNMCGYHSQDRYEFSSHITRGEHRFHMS
T6 sequence (Q96SW2 whole entry): as the sequence (Q96SW2 whole entry) above
T6 sequence (Q16531 whole entry partner): as the sequence (Q16531 whole entry partner) above

SMILES | IKZF2 substrate protein remaining % (IKZF2) | CK1α substrate protein remaining % (CK1α) | WEE1 substrate protein remaining % (WEE1) | IKZF3 substrate protein remaining % (IKZF3) | IC50 (MM.1S cells) [nM] | GSPT1 substrate protein remaining % (GSPT1) | IC50 (MGC803 cells) [nM] | IKZF1 substrate protein remaining % (IKZF1) | IC50 (Jurkat cells) [nM] | Inhibition Rate at 10 nM (%) (H2228 cells; H2228, 10 nM) | Inhibition Rate at 500 nM (%) (H2228 cells; H2228, 500 nM) | Inhibition Rate at 10 nM (%) (MDA-MB-231 cells; MDA-MB-231, 10 nM) | Inhibition Rate at 500 nM (%) (MDA-MB-231 cells; MDA-MB-231, 500 nM) | Inhibition Rate at 10 nM (%) (H292 cells; H292, 10 nM) | Inhibition Rate at 500 nM (%) (H292 cells; H292, 500 nM)
O=C1CCN(N2Cc3cc(CN4CCC(N(c5ccccc5)c5ccccc5)CC4)ccc3C2=O)C(=O)N1 [GT-04939, 1-(5-((4-(diphenylamino)piperidin-1-yl)methyl)-1-oxoisoindolin-2-yl)dihydropyrimidine-2,4(1H,3H)-dione] | A (0% ≤ substrate protein remaining % ≤80%) | A (0% ≤ substrate protein remaining % ≤80%) | A (0% ≤ substrate protein remaining % ≤80%) | A (0% ≤ substrate protein remaining % ≤80%) | 10 to 50 | A (0% ≤ substrate protein remaining % ≤80%) | 100 to 300 | A (0% ≤ substrate protein remaining % ≤80%) | 100 to 300 |  |  |  |  |  | 
O=C1CCN(N2Cc3cc(CN4CCC(N(c5ccccc5)c5ccccn5)CC4)ccc3C2=O)C(=O)N1 [GT-04940, 1-(1-oxo-5-((4-(phenyl(pyridin-2-yl)amino)piperidin-1-yl)methyl)isoindolin-2-yl)dihydropyrimidine-2,4(1H,3H)-dione] | A (0% ≤ substrate protein remaining % ≤80%) | A (0% ≤ substrate protein remaining % ≤80%) | A (0% ≤ substrate protein remaining % ≤80%) | A (0% ≤ substrate protein remaining % ≤80%) | 50 to 100 | A (0% ≤ substrate protein remaining % ≤80%) | 100 to 300 | A (0% ≤ substrate protein remaining % ≤80%) | 100 to 300 |  |  |  |  |  | 
O=C1CCN(N2Cc3cc(CN4CCC(Nc5ccccc5-c5ccc(Cl)cc5)CC4)ccc3C2=O)C(=O)N1 [GT-04943, 1-(5-((4-((4′-chloro-[1,1′-biphenyl]-2-yl)amino)piperidin-1-yl)methyl)-1-oxoisoindolin-2-yl)dihydropyrimidine-2,4(1H,3H)-dione] | A (0% ≤ substrate protein remaining % ≤80%) | B (80%< substrate protein remaining % ≤100%) | A (0% ≤ substrate protein remaining % ≤80%) | A (0% ≤ substrate protein remaining % ≤80%) | 10 to 50 | A (0% ≤ substrate protein remaining % ≤80%) | 100 to 300 | A (0% ≤ substrate protein remaining % ≤80%) | 100 to 300 |  |  |  |  |  | 
Nc1cccc2c1CN(C1CCC(=O)NC1=O)C2=O (stereo not drawn) [lenalidomide, reference compound] |  |  |  |  |  |  |  |  |  | d5 (20% ≤ d5 <25%) | d4 (15% ≤ d4 <20%) | f4 (15% ≤ f4 <18%) | f3 (10% ≤ f3 < 15%) | b1 (0 < b1 <1%) | b3 (5% ≤ b3 <10%)

Source: patent US20260356819A1, “OXOISOINDOLINYL-SUBSTITUTED […] DERIVATIVE AND USE THEREOF” (GLUETACS THERAPEUTICS (SHANGHAI) CO., LTD., priority 2023, published 2026)
